Results from publication PMC8657723, “Novel Pituitary Actions of TAC4 Gene Products in Teleost” (International Journal of Molecular Sciences, 2021).
Entries after “also recorded” stand apart in the source; their conditions may differ. Ends that are not written are not given here.

Tests used:
mammals = tested on: mammals; design: method as in PMID 18337115; settings: cited from earlier work
rats = tested on: rats; design: method as in 2 sources, ref 26, 51 = [26]; PMID 19854230; doi:10.1016/j.peptides.2009.10.013; 26. Yang Y. Dong S. Effects of Endokinin A/B and Endokinin C/D on the modulation of pain in mice Peptides 2010 31 94 100 10.1016/j.peptides.2009.10.013 19854230 || [51]; PMID 12524318; doi:10.1016/S0006-3495(03)74885-1; 51. Grace R.C. Chandrashekar I.R. Cowsik S.M. Solution structure of the tachyk-inin peptide eledoisin Biophys. J. 2003 84 655 664 10.1016/S0006-3495(03)74885-1 12524318 PMC1302646 ||| ref 26, 53, 54 = [26]; PMID 19854230; doi:10.1016/j.peptides.2009.10.013; 26. Yang Y. Dong S. Effects of Endokinin A/B and Endokinin C/D on the modulation of pain in mice Peptides 2010 31 94 100 10.1016/j.peptides.2009.10.013 19854230 || [53]; PMID 17655832; doi:10.1016/j.brainres.2007.05.062; 53. Naono R. Nakayama T. Ikeda T. Matsushima O. Nishimori T. Leucine at the carboxyl-terminal of endokinins C and D contributes to elicitation of the antagonistic effect on substance P in rat pain pro || [54]; PMID 17101218; doi:10.1016/j.neulet.2006.09.024; 54. Yoshioka D. Takebuchi F. Nishimori T. Naono R. Ikeda T. Nakayama T. Intrathecal administration of the common carboxyl-terminal decapeptide in end-okinin A and endokinin B evokes scratching behavio; settings: cited from earlier work; for pain-related behaviors: central administration, scratching, paw withdrawal, thermal hyperalgesia; for effect on SP- or EKA/B-induced pain-related behaviors: simultaneous treatment
six NKR isoforms = assay: Functional activation of the six grass carp NKR isoforms, NFAT-Luc reporter in HEK293T cells; assay type: cell-based, grass carp (Ctenopharyngodon idellus); settings: 24 h
Experimental: To clarify the receptor selectivity of TAC4 gene products, a transfection experiment was conducted in HEK293T cells, and the fluorescent signal was detected by the firefly luciferase reporter gene detection kit. Firstly, the cDNA sequences of neurokinin receptor 1 isoforms a (NK1Ra), neurokinin receptor 1 isoforms b (NK1Rb), NK2R, neurokinin receptor 3 isoforms a1 (NK3Ra1), neurokinin receptor 3 isoforms a2 (NK3Ra2), and neurokinin receptor 3 isoforms b (NK3Rb) were isolated from grass carp pituitary, and the coding region of the six receptors were then subcloned into the eukaryotic expression vector pcDNA3.1. Secondly, the HEK293T cells were co-transfected with the plasmids of NFAT-Luc (Nuclear factor of activated T cells-luciferase), green fluorescent protein (GFP), and each pcDNA3.1-NKRs by using Lipofectamine 3000 (Thermo Fisher). The transfected HEK293T cells were incubated with various concentration HK-1 (1–10,000 nM), HK-2 (1–10,000 nM), or HK1-V7F (1–10,000 nM) for 24 h, respectively. Finally, the transfected cells were collected to detect the luciferase value according to the instructions of the firefly luciferase reporter gene detection kit.
To clarify the receptor selectivity of HK1 and HK2 for the six NKRs, HEK-293T cell lines were established to stably express NK1Ra, NK1Rb, NK2R, NK3Rb, NK3Ra1, or NK3Ra2 were established, respectively. The cells were then used for transfection study with NFAT-Luc vectors, which was allowed for functional evaluation of the activation status of Ca^2+-dependent pathway.
Figure 2 Receptor selectivity of HK1, HK2, and HK1-V7F. The nuclear factor of activated T-cells (NFAT)-Luc reporter together with NK1Ra, NK1Rb, NK2R, NK3Rb, NK3Ra1, or NK3Ra2, were transiently transfected into HEK-293 cells, respectively. The cells were incubated with increasing levels of grass carp HK1, HK2, or HK1-V7F (0.1–1000 nM), respectively. The luciferase activities were normalized against renilla expression in the same sample to adjust for potential variations in transfection efficiency. Each point is determined quadruplicate and is given as a mean ± SEM. The groups denoted by different letters represent significant differences at p-value < 0.05 (ANOVA followed Dunnett’s test).

[1] = tested on: grass carp pituitary cells; assay: RT-qPCR of pituitary gene mRNA expression after peptide treatment of grass carp pituitary cells; assay type: cell-based, grass carp (Ctenopharyngodon idellus); settings: 0.1–1000 nM, 24 h
Excerpt: To further confirm the pituitary actions of HKs in grass carp, trypsin digestion method was used to prepare for grass carp primary cultured pituitary cells. […] After drug treatment, total RNA was extracted from adherent cells by Trizol, and then subjected to reverse transcription using HifairTM III 1st Strand cDNA Synthesis Kit (Yeasen, Shanghai, China). In the present study, β-actin was used as the internal reference gene, and then, the transcript levels of PRL, SLα, CART2, UTS1, and NMB1 were detected by using a ABI 7500 real-time PCR system (see Supplementary Table S2 for primer sequences and PCR condition). In addition, the plasmid DNA containing the gene coding sequence was serially diluted as a standard for data calibration.
In this study, RT-qPCR was used to detect mRNA expression for TAC4, NKRs, PRL, SLα, CART2, UTS1, SN2, and NMB1. In the ABI7500 software, the dynamic mRNA concentration detection range of the double standard curve is 10^5, and the correlation coefficient is >0.95. […] In the transfection experiment, the detected firefly luciferase activity was routinely normalized with the GFP activity expressed in the same well, expressed as the luciferin activity ratio Luc ratio. The data from four parallel experiments was presented as mean ± SEM in the figure. All the data were analyzed by ANOVA, and then subjected to Dunnett’s test in GraphPad Prism 7.0. The significant differences between groups were indicated by p < 0.05.
Figure 5 TAC4 gene products (HK1 and HK2) induced PRL (A) and SLα (B) mRNA expression in grass carp pituitary cells. Time course of grass carp HK1 (1 μM) and HK2 (1 μM) on PRL (A) and SLα (B) mRNA expression in grass carp pituitary cells. Dose-dependence of 24-h treatment with increasing levels of HK1 and HK2 (0.1–1000 nM) on PRL (A) and SLα (B) mRNA expression in grass carp pituitary cells. After drug treatment, the total RNA of the cells was extracted by the Trizol method, and the expression of various genes was detected by RT-PCR. Data presented were expressed as mean ± SEM, and the differences between groups were significant at p-value < 0.05 by labeling diverse letters.
Figure 6 TAC4 gene products (HK1 and HK2) induced CART2, NMB1, and UTS1 mRNA expression in grass carp pituitary cells. Time course of grass carp HK1 (1 μM) and HK2 (1 μM) on CART2 (A), NMB1 (B), and UTS1 (C) mRNA expression in grass carp pituitary cells. Dose-dependence of 24-h treatment with increasing levels of HK1 or HK2 (0.1–1000 nM) on CART2 (A), NMB1 (B), and UTS1 (C) mRNA expression in grass carp pituitary cells. After drug treatment, the total RNA of the cells was extracted by the Trizol method, and the expression of various genes were detected by RT-PCR. Data presented were expressed as mean ± SEM, and the differences between groups were significant at p-value < 0.05 by labeling diverse letters.
Figure 9 Phe to Val mutation in FXGLM motif in PRL, SLα, and UTS1 regulation by HK2 in grass carp pituitary cells. (A) Effects of HK1-V7F on PRL, SLα, and UTS1 mRNA expression in grass carp pituitary cells. In this experiment, grass carp pituitary cells were incubated for 24 h with increasing levels of HK1-V7F (0.1–1000 nM). (B) Suppressed effects of HK1 on HK2-induced PRL, SLα, and UTS1 mRNA expression in grass carp pituitary cells. Pituitary cells were challenged for 24 h with grass carp HK2 (0.1 µM) in the presence or absence of HK1 (1 µM) and HK1 (10 µM). In these experiment, Trizol method was used to extract total cell RNA, and RT-PCR was used to detect PRL, SLα, and UTS1 mRNA expression. Data presented are expressed as mean ± SEM, and the differences between groups were significant at p-value < 0.05 by labeling diverse letters.

carp pituitary cells = settings: cited from earlier work; for LHβ secretion / PRL and SLα transcriptional levels / PRL secretion / SLα secretion: pituitary cells of carp
Excerpt: In mammals, the tachykinin (TAC) family includes three members, namely tachykinin 1 (TAC1), tachykinin 3 (TAC3) (tachykinin 2 (TAC2) in rodents), and TAC4, respectively. Among them, TAC1 gene encodes substance P (SP) and neurokinin A (NKA). SP is known to be involved in the regulation of pain control/injury, neurogenicinflammation and obesity with mammals. Compared with mammals, teleost have undergone an additional genome duplication during evolution, which is called fish-specific genome duplication (FSGD) or the 3R hypothesis. […] The resear ... || In mammals, many studies have focused on the actions of hemokinin on immunological regulation and inflammation. However, little information is available about its endocrinology function. […] Similar resu ... || (+ 1 further places)

carp NK2R = tested on: carp NK2R; design: method as in PMID 28323939; settings: cited from earlier work
Excerpt: In mammals, the biological action of tachykinins is mediated by three GPCRs, namely NK1R, NK2R, and NK3R, which are stimulated preferentially by SP, NKA, and NKB, respectively. […] In the present study, due to the third round whole-genome duplication, 6 NKRs were detected in grass carp, namely NK1Ra, NK1Rb, NK2R, NK3Ra1, NK3Ra2, and NK3Rb, respectively. Based on the ...

[2] = tested on: sexually mature female zebrafish; settings: intraperitoneal injection; cited from earlier work
Excerpt: In mammals, TAC3 encodes neurokinin B (NKB), is known to be involved in the regulation of smooth muscles of the gastrointestinal tract, secretion of intestinal epithelial fluid, vasodilation, and stimulating sperm motility. […] The resear ...

[3] = design: method as in PMID 20233609, PMID 23317790; settings: cited from earlier work

CRH: corticortropin-releasing hormone (SEEPPISLDLTFHLLREVLEMARAEQLAQQAHSNRKLMEII; ends and bridges not checked; UniProt P06850 154-194, looked up)
food intake and energy expenditure (mammals): reduce food intake and induce energy expenditure

EKA/B: endokinins A and B, human TAC4 products (GKASQFFGLM; ends and bridges not checked; UniProt Q86UU9 58-67, looked up)
pain-related behaviors (rats): induce pain-related behaviors

TPGLQQFFGLM-NH2 [HK1-V7F, Val to Phe mutant of HK1, …-NH2]
ED50, NFAT-Luc luciferase activity, NKR isoforms (in words) (six NKR isoforms; HEK-293T expressing each NKR): nanomolar dose range
activation of the six NKR isoforms (in words) (six NKR isoforms; NFAT-Luc luciferase, HEK293T, NK1Ra, NK1Rb, NK2R, NK3Ra1, NK3Ra2, NK3Rb): notably enhanced
PRL mRNA expression, HK1-V7F dose-response [1]: levels comparable to that induced by HK2
SLα mRNA expression, HK1-V7F dose-response [1]: levels comparable to that induced by HK2; also recorded: markedly enhanced to the levels for HK2
UTS1 mRNA expression, HK1-V7F dose-response [1]: levels comparable to that induced by HK2

endokinin C (KKAYQLEHTFQGLL; ends and bridges not checked; UniProt Q86UU9 82-95, looked up) [EKC, human TAC4 product with FXGLL motif]
effect on SP- or EKA/B-induced pain-related behaviors (rats): can be blocked

endokinin D [EKD]
effect on SP- or EKA/B-induced pain-related behaviors (rats): can be blocked

neurokinin A (HKTDSFVGLM; ends and bridges not checked; UniProt P20366 98-107, looked up) [NKA, TAC1 gene product]
LHβ secretion (carp pituitary cells): can trigger the secretion
PRL and SLα transcriptional levels (carp pituitary cells): increase in parallel
PRL secretion (carp pituitary cells): can trigger the secretion
SLα secretion (carp pituitary cells): can trigger the secretion
activation of carp NK2R (carp NK2R): comparable efficacy and potency

neurokinin B (DMHDFFVGLM; ends and bridges not checked; UniProt Q9UHF0 81-90, looked up) [NKB, TAC3 gene product]
pituitary PRL and SLα synthesis and secretion (carp pituitary cells): significantly induce pituitary PRL and SLα synthesis and secretion
PRL and SLα secretion and mRNA synthesis (carp pituitary cells; grass carp pituitary cells): promote PRL and SLα secretion and mRNA synthesis
UTS1, CART2 and NMB1 mRNA expression (carp pituitary cells; grass carp pituitary cells): could stimulate
LHβ secretion in zebrafish [2]: induce LHβ secretion

neurokinin B-related peptide [NKBRP]
PRL and SLα secretion and mRNA synthesis (carp pituitary cells; grass carp pituitary cells): promote PRL and SLα secretion and mRNA synthesis
LHβ secretion in zebrafish [2]: induce LHβ secretion

neuromedin B [NMB]
feeding and gastric peristalsis [3]: inhibit feeding and gastric peristalsis

substance P (RPKPQQFFGLM; ends and bridges not checked; UniProt P20366 58-68, looked up) [SP, TAC1 gene product]
LHβ release, short-term treatment (carp pituitary cells; 3 h): induced the release of LHβ
LHβ mRNA expression, prolonged treatment (carp pituitary cells; 24 h): inhibited LHβ mRNA expression
LHβ secretion (carp pituitary cells): can trigger the secretion
PRL and SLα transcriptional levels (carp pituitary cells): increase in parallel
PRL secretion (carp pituitary cells): can trigger the secretion
SLα secretion (carp pituitary cells): can trigger the secretion
activation of carp NK2R (carp NK2R): comparable efficacy and potency
pain-related behaviors (rats): induce pain-related behaviors
